For 32 compounds, Relative content and solubility in water results are on record in patent US20260123631A1, “NATURAL PORPHIN SALT AND USE THEREOF AS PLANT GROWTH REGULATOR AND PLANT IMMUNITY INDUCER” (NANJING BOSTEC BIOLOGICAL ENGINEERING CO., LTD, priority 2022, published 2026).

The nature of data set [1]: Stability of sample solutions in the dark/under light. The note with it: under light 30,000 lux, salts in water, acidic reference in 30% to 50% ethanol. It counts as physicochemical. Here is the method:
Determination: An appropriate amount of a salt sample was taken, dissolved with water, and diluted to prepare a test solution with a concentration of about 10 ppm. An acidic reference substance (extremely-insoluble in water) was prepared with a 30% to 50% ethanol aqueous solution into a test solution with a concentration of about 10 ppm.
Each test solution was scanned by an ultraviolet spectrophotometer (at 0 h) for absorbance in a range of 200 nm to 800 nm immediately after being prepared. Then a test solution of each sample was divided into two parts. One part was placed at room temperature of 25° C. in the dark, and the other part was placed under light with a light intensity of 30,000 lux. At 1 h, 2 h, and 3 h, a solution sample was collected and scanned for absorbance respectively.
An absorbance value of a maximum absorption peak at 0 h (starting) of each test solution was set as a relative content of 100%, and a ratio of an absorbance value at each time point to the absorbance value at 0 h was calculated to determine a relative content, %.

Data set [2] in a line: Water solubility of the prepared salts. The format is physicochemical.

As for `C=CC1=C(C)c2cc3[nH]c(cc4nc(cc5[nH]c(cc1n2)c(C)c5C=C)C(C)=C4CCC(=O)O)c(CCC(=O)O)c3C.N.N` [Example 2, ammonium protoporphyrin], the Relative content came to 60.29% in data set [1] (1 h), 48.76% in data set [1] (2 h) and 45.99% in data set [1] (3 h). For the same compound, the solubility in water entry in data set [2] is recorded as “easily soluble”.

Take `C=CC1=C(C)c2cc3[nH]c(cc4nc(cc5[nH]c(cc1n2)c(C)c5C=C)C(C)=C4CCC(=O)[O-])c(CCC(=O)[O-])c3C.[Ca+2]` [Example 4, calcium protoporphyrin]: the Relative content was 90.07% in data set [1] (1 h), 87.11% in data set [1] (2 h) and 85.89% in data set [1] (3 h). Moreover, the solubility in water entry in data set [2] is recorded as “soluble”.

Consider `C=CC1=C(C)c2cc3[nH]c(cc4nc(cc5[nH]c(cc1n2)c(C)c5C=C)C(C)=C4CCC(=O)[O-])c(CCC(=O)[O-])c3C.[Mn+2]` [Example 5, manganese protoporphyrin], for which the Relative content in data set [1] (1 h) is on record as 92.57%; in data set [1] (2 h), 90.09%; in data set [1] (3 h) it was 88.85%. Further, the solubility in water entry in data set [2] was “soluble”.

Consider `C=CC1=C(C)c2cc3[n-]c(cc4[n-]c(cc5nc(cc1n2)C(C)=C5C=C)c(C)c4CCC(=O)O)c(CCC(=O)O)c3C.[Fe+2]` [Example 6, ferrous protoporphyrin], for which the solubility in water entry in data set [2] is recorded as “soluble”.

As for `C=CC1=C(C)c2cc3[n-]c(cc4nc(cc5[n-]c(cc1n2)c(C)c5C=C)C(C)=C4CCC(=O)O)c(CCC(=O)O)c3C.[Zn+2]` [Example 8, zinc protoporphyrin], the Relative content in data set [1] (1 h) is on record as 90.95%; in data set [1] (2 h), 89.52%; in data set [1] (3 h), 86.51%. In addition, the solubility in water result in data set [2] is given as “slightly soluble”.

As to `C=CC1=C(C)c2cc3[nH]c(cc4nc(cc5[nH]c(cc1n2)c(C)c5C=C)C(C)=C4CCC(=O)[O-])c(CCC(=O)[O-])c3C.[Cu+2]` [Example 9, copper protoporphyrin], the Relative content in data set [1] (1 h) is listed as 96.42%; in data set [1] (2 h) it was 95.56%; in data set [1] (3 h), 94.88%. For the same compound, the solubility in water entry in data set [2] is recorded as “slightly soluble”.

As to `C=CC1=C(C)c2cc3[n-]c(cc4nc(cc5[n-]c(cc1n2)c(C)c5C=C)C(C)=C4CCC(=O)[O-])c(CCC(=O)[O-])c3C.[Cl-].[Fe+3].[NH4+].[NH4+]` [Example 12, ammonium chlorhematin], the Relative content was determined as 73.07% in data set [1] (1 h), 67.80% in data set [1] (2 h) and 66.25% in data set [1] (3 h). In addition, in data set [2], the solubility in water result is listed as “easily soluble”.

In the case of `C=CC1=C(C)c2cc3[n-]c(cc4nc(cc5[n-]c(cc1n2)c(C)c5C=C)C(C)=C4CCC(=O)[O-])c(CCC(=O)[O-])c3C.[Ca+2].[Cl-].[Fe+3]` [Example 14, calcium chlorhematin], the Relative content in data set [1] (1 h) is 82.53%; in data set [1] (2 h) it was 81.78%; in data set [1] (3 h) it was 81.97%. Moreover, in data set [2], the solubility in water result is on record as “soluble”.

Consider `C=CC1=C(C)c2cc3[n-]c(cc4nc(cc5[n-]c(cc1n2)c(C)c5C=C)C(C)=C4CCC(=O)[O-])c(CCC(=O)[O-])c3C.[Cl-].[Fe+3].[Mn+2]` [Example 15, manganese chlorhematin], for which the Relative content in data set [1] (2 h) is given as 82.32%; in data set [1] (3 h), 81.07%. Besides, the solubility in water result in data set [2] is reported as “slightly soluble”.

In the case of `C=CC1=C(C)c2cc3[n-]c(cc4nc(cc5[n-]c(cc1n2)c(C)c5CCC(=O)[O-])C(CCC(=O)[O-])=C4C)c(C)c3C=C.[Cl-].[Fe+2].[Fe+3]` [Example 16, ferrous chlorhematin], in data set [2], the solubility in water result is listed as “slightly soluble”.

With `C=CC1=C(C)c2cc3[n-]c(cc4nc(cc5[n-]c(cc1n2)c(C)c5CCC(=O)[O-])C(CCC(=O)[O-])=C4C)c(C)c3C=C.[Cl-].[Fe+3].[Zn+2]` [Example 18, zinc chlorhematin], the Relative content is on record as 93.45% in data set [1] (1 h), 93.10% in data set [1] (2 h) and 92.74% in data set [1] (3 h). Further, the solubility in water result in data set [2] was “slightly soluble”.

For the compound `C=CC1=C(C)c2cc3[n-]c(cc4nc(cc5[n-]c(cc1n2)c(C)c5CCC(=O)[O-])C(CCC(=O)[O-])=C4C)c(C)c3C=C.[Cl-].[Cu+2].[Fe+3]` [Example 19, copper chlorhematin], the results for the Relative content in data set [1] (1 h), in data set [1] (2 h) and in data set [1] (3 h) were 95.23%, 95.03% and 93.04%, respectively. In data set [2], the solubility in water result is recorded as “slightly soluble”.

Take `C=CC1=C(C)c2cc3[n-]c(cc4nc(cc5[n-]c(cc1n2)c(C)c5C=C)C(C)=C4CCC(=O)[O-])c(CCC(=O)[O-])c3C.[Fe+3].[Na+].[Na+].[OH-]` [Sodium hydroxyhematin, sodium hydroxyhematin, reference compound]: the Relative content in data set [1] (1 h) is recorded as 70.21%; in data set [1] (2 h), 62.33%; in data set [1] (3 h), 57.03%. The solubility in water result in data set [2] is on record as “easily soluble”.

Consider copper hydroxyhematin [Example 70], for which the Relative content in data set [1] (1 h) was determined as 96.20%; in data set [1] (2 h), 95.71%; in data set [1] (3 h), 92.81%. Further, the solubility in water result in data set [2] is listed as “slightly soluble”.

With ferric chlorhematin [Example 17], in data set [2], the solubility in water entry is listed as “slightly soluble”.

On to ferric chlorin [Example 58], for which the solubility in water result in data set [2] is listed as “slightly soluble”.

Take “ferric copper chlorophyllin [Example 49]”: in data set [2], the solubility in water entry was “slightly soluble”.

ferric hydroxyhematin [Example 68]: the solubility in water result in data set [2] is listed as “slightly soluble”.

With ferric iron chlorin [Example 26], the solubility in water entry in data set [2] is recorded as “slightly soluble”.

For the compound ferric iron chlorophyllin [Example 33], the solubility in water entry in data set [2] is recorded as “slightly soluble”.

With “ferric iron hydroxychlorophyllin [Example 77]”, the solubility in water result in data set [2] is given as “slightly soluble”.

Turning to ferric protoporphyrin [Example 7], the solubility in water entry in data set [2] is reported as “slightly soluble”.

For ferric zinc chlorophyllin [Example 39], the solubility in water result in data set [2] is given as “slightly soluble”.

Regarding ferrous chlorin [Example 57], the solubility in water result in data set [2] is reported as “slightly soluble”.

On to “ferrous copper chlorophyllin [Example 48]”, for which the solubility in water result in data set [2] was “slightly soluble”.

For ferrous hydroxyhematin [Example 67], the solubility in water result in data set [2] was “slightly soluble”.

As for ferrous iron chlorin [Example 25], the solubility in water entry in data set [2] is reported as “slightly soluble”.

With ferrous iron chlorophyllin [Example 32], in data set [2], the solubility in water result is “slightly soluble”.

Take “ferrous iron hydroxychlorophyllin [Example 76]”: the solubility in water entry in data set [2] was “slightly soluble”.

Turning to ferrous zinc chlorophyllin [Example 38], in data set [2], the solubility in water entry is on record as “slightly soluble”.

Turning to magnesium hydroxyhematin [Example 64], the Relative content came to 96.74% in data set [1] (1 h), 93.78% in data set [1] (2 h) and 93.33% in data set [1] (3 h).

Take “magnesium iron hydroxychlorophyllin [Example 74]”: the Relative content in data set [1] (1 h) turned out to be 80.48%; in data set [1] (2 h) it was 67.53%; in data set [1] (3 h), 67.13%.
